In US8158621B2, “Methods of treating or preventing autoimmune diseases with 2,4-pyrimidinediamine compounds” (Rigel Pharmaceuticals, Inc., priority 2002, dated 2012):

tested on: cultured human mast cells (CHMC); experiment: CHMC low cell density IgE activation: tryptase assay; type: cell-based; details: Homo sapiens, Mast cell, Low Density; read-out: CHMC anti-IgE Tryptase
Description: Pellet CHMC cells (980 rpm, 10 min) and resuspend in pre-warmed MT. Add 65 ul of cells to each 96-well plate. Depending on the degranulation activity for each particular CHMC donor, load 1000-1500 cells/well. Mix four times followed by a 1 hr incubation at 37° C. […] Stimulate cells by adding 25 ul of 6× anti-IgE solution to the appropriate plates. Add 25 ul MT to un-stimulated control wells. Mix twice following addition of the anti-IgE. Incubate at 37° C. for 30 minutes. […] Spin plates at 1000 rpm for 10 min to pellet cells. Transfer 25 ul of supernatant to a 96-well black bottom plate and add 100 ul of freshly diluted tryptase substrate solution to each well. Incubate plates at room temperature for 30 min.

Row | IC50 | SMILES
1 | > 10 µM | Fc1cnc(Cl)nc1Nn1cccc1 [Compound R935275]
2 | > 10 µM | Fc1cnc(Cl)nc1Nc1ccc2ncccc2c1 [Compound R920409]

same assay, conditions: low cell density; read-out: CHMC anti-IgE Tryptase

Row | SMILES | IC50
3 | CNC(=O)COc1cccc(Nc2ncc(F)c(Nc3cccc(OCC(=O)NC)c3)n2)c1 [Compound R945378] | 0.754 µM
4 | CNC(=O)COc1cccc(Nc2ncc(F)c(Nc3ccc(OC4CCC(NC(=O)OC(C)(C)C)CC4)c(Cl)c3)n2)c1 (mixture of isomers) [Compound R945384] | 0.913 µM
5 | COc1ccc(Nc2nc(Nc3ccc4c(cnn4C)c3)ncc2F)cc1OC [Compound R935412] | 0.696 µM
6 | CCN(CC)CCNC(=O)c1ccc(Nc2ncc(F)c(Nc3ccc4c(c3)NC(=O)C(F)(F)O4)n2)cc1 [Compound R950449] | 0.668 µM
7 | CC1(C)Oc2ccc(Nc3ncc(F)c(Nc4ccc(Cl)c(Cl)c4)n3)cc2NC1=O [Compound R927059] | 0.291 µM
8 | Cc1cccc(C)c1Nc1ncc(F)c(Nc2ccc(Cl)c(Cl)c2)n1 [Compound R927079] | 0.599 µM
9 | COc1ccc(Nc2nc(Nc3ccc4c(c3)CC(C(=O)N(C)C)O4)ncc2F)cc1Cl (centres unmarked) [Compound R927052] | 0.678 µM
10 | COc1c(C)cc(Nc2ncc(F)c(Nc3ccc4c(c3)OCCO4)n2)cc1C [Compound R940396] | 22.7 µM
11 | CNC(=O)COc1cccc(Nc2ncc(F)c(Nc3cc(Cl)c(OC)c(Cl)c3)n2)c1 [Compound R927057] | 0.37 µM
12 | CCOC(=O)CCn1ncc2ccc(Nc3ncc(F)c(Nc4ccc(Cl)c(Cl)c4)n3)cc21 [Compound R935403] | 0.821 µM
13 | CCN(CC)CCNC(=O)c1ccc(Nc2ncc(F)c(Nc3ccc4c(c3)NC(=O)[C@H](C)O4)n2)cc1 [Compound R950446] | 0.148 µM
14 | COc1c(C)cc(Nc2ncc(F)c(Nc3ccc4cnn(C)c4c3)n2)cc1Cl [Compound R935419] | 0.23 µM
15 | NC(=O)c1ccc(Nc2ncc(F)c(Nc3ccc4c(c3)NC(=O)C(F)(F)O4)n2)cc1 [Compound R950455] | 0.217 µM
16 | Cc1cc(Nc2ncc(F)c(Nc3ccc4c(c3)NC(=O)C(C)(C)O4)n2)cc(C)c1C [Compound R926994] | 0.061 µM
17 | COc1cc(Nc2nc(N[C@@H]3CCCC[C@H]3N)ncc2F)cc(OC)c1 [Compound R950439] | > 10 µM
18 | COc1ccc(Nc2nc(Nc3cc(Cl)c(OC)c(Cl)c3)ncc2F)cc1Cl [Compound R927054] | > 10 µM
19 | COc1cc(Nc2ncc(F)c(Nc3ccc4c(c3)NC(=O)C(C)(C)O4)n2)cc(OC)c1 [Compound R927071] | 0.067 µM

Row | SMILES | IC50
20 | CNC(=O)CCn1ncc2cc(Nc3ncc(F)c(Nc4ccc(Cl)c(Cl)c4)n3)ccc21 [Compound R935390] | 0.544 µM
21 | CC(=O)N(C)c1ccc(Nc2ncc(F)c(NC3CCC3)n2)cc1 [Compound R945383] | 0.985 µM
22 | COc1c(C)cc(Nc2ncc(F)c(Nc3ccc4c(n3)NC(=O)C(C)(C)O4)n2)cc1C [Compound R940395] | > 10 µM
23 | CNC(=O)COc1cccc(Nc2ncc(F)c(Nc3ccc(OC(C)C)c(Cl)c3)n2)c1 [Compound R926973] | 0.284 µM
24 | Cn1ncc2cc(Nc3ncc(F)c(Nc4ccc(Cl)c(F)c4)n3)ccc21 [Compound R935411] | > 10 µM
25 | CC(=O)N1CCN(c2ccc(Nc3nc(NC4CC4)ncc3F)cc2)CC1 [Compound R945381] | > 10 µM
26 | COc1cc(Nc2ncc(F)c(Nc3ccc4c(c3)NC(=O)C(C)(C)O4)n2)cc(OC)c1 [Compound R927072] | 0.064 µM
27 | Fc1ccc(Nc2nc(Nc3ccc4[nH]ncc4c3)ncc2F)cc1Cl [Compound R935428] | 1.27 µM
28 | COc1cc(Nc2ncc(F)c(Nc3ccc(N4CCOCC4)c(Cl)c3)n2)cc(OC)c1 [Compound R926986] | 0.345 µM
29 | CNC(=O)CCn1ncc2ccc(Nc3ncc(F)c(Nc4ccc5c(c4)NC(=O)C(C)(C)O5)n3)cc21 [Compound R935435] | 0.337 µM
30 | NC(=O)c1ccc(Nc2ncc(F)c(Nc3ccc(Cl)c(Cl)c3)n2)cc1 [Compound R950451] | 0.07 µM
31 | COC(=O)c1ccc(Cn2cc3ccc(Nc4ncc(F)c(Nc5ccc(Cl)c(Cl)c5)n4)cc3n2)c(OC)c1 [Compound R935396] | 2.58 µM
32 | C[C@@H]1Oc2ccc(Nc3nc(N[C@@H]4CCCC[C@H]4N)ncc3F)cc2NC1=O [Compound R950441] | > 10 µM
33 | NCc1ccc(Nc2ncc(F)c(Nc3ccc(Cl)c(Cl)c3)n2)cc1 [Compound R950459] | 0.632 µM
34 | COc1cc(Nc2nc(Nc3ccc(C(N)=O)cc3)ncc2F)cc(OC)c1 [Compound R950450] | 1.09 µM
35 | COc1cc(Nc2nc(Nc3ccc4c(c3)C(N)CCO4)ncc2F)cc(OC)c1 (racemic) [Compound R950436] | 5.53 µM
36 | CC1(C)C(=O)NC(=O)c2cc(Nc3nc(Nc4ccc(CN)cc4)ncc3F)ccc21 [Compound R950463] | 2.46 µM

Further lines, results first:

Row | IC50 | SMILES
37 | 1.12 µM | CNC(=O)COc1cccc(Nc2ncc(F)c(Nc3ccc(N(C)C(C)=O)cc3)n2)c1 [Compound R945377]
38 | 0.417 µM | COc1cc(Nc2nc(Nc3ccc4c(cnn4C)c3)ncc2F)ccc1F [Compound R935410]
39 | 0.291 µM | OCCCn1ncc2cc(Nc3ncc(F)c(Nc4ccc(F)c(F)c4)n3)ccc21 [Compound R935386]
40 | 0.502 µM | Fc1ccc(Nc2nc(Nc3ccc4cn[nH]c4c3)ncc2F)cc1F [Compound R935400]
41 | 0.371 µM | CCN(C(C)=O)c1ccc(Nc2ncc(F)c(Nc3ccc4c(n3)NC(=O)CO4)n2)cc1 [Compound R945421]
42 | > 10 µM | Cn1ncc2cc(Nc3ncc(F)c(Nc4ccc(F)c(Cl)c4)n3)ccc21 [Compound R935426]
43 | > 10 µM | COC(=O)N1CCN(c2ccc(Nc3nc(NC4CCC4)ncc3F)cc2)CC1 [Compound R945374]
44 | 1.15 µM | COc1cc(Nc2ncc(F)c(Nc3ccc4c(c3)C(NC(=O)OC(C)(C)C)CCO4)n2)cc(OC)c1 (racemic) [Compound R950425]
45 | 0.071 µM | Cc1cc(C)cc(Nc2ncc(F)c(Nc3ccc4c(c3)NC(=O)C(C)(C)O4)n2)c1 [Compound R927076]
46 | 0.237 µM | Fc1cc(Nc2nc(Nc3ccc4[nH]ncc4c3)ncc2F)ccc1Cl [Compound R935415]
47 | 0.301 µM | CNC(=O)COc1cccc(Nc2ncc(F)c(Nc3ccc4c(c3)C(NC)CCO4)n2)c1 (racemic) [Compound R950412]
48 | 2.27 µM | CNC(=O)COc1cccc(Nc2ncc(F)c(Nc3ccc4c(c3)C(NC(=O)CN(C)C)CCO4)n2)c1 (racemic) [Compound R950416]
49 | 0.142 µM | C[C@@H]1Oc2ccc(Nc3nc(Nc4ccc(CN)cc4)ncc3F)cc2NC1=O [Compound R950461]
50 | 0.046 µM | CNC(=O)COc1cccc(Nc2ncc(F)c(Nc3ccc4c(c3)NC(=O)C(F)(F)O4)n2)c1 [Compound R945415]
51 | 0.199 µM | CNC(=O)COc1cccc(Nc2ncc(F)c(Nc3ccc(OC)c(Cl)c3)n2)c1 [Compound R926989]
52 | 0.51 µM | Cn1ncc2ccc(Nc3ncc(F)c(Nc4ccc(F)c(F)c4)n3)cc21 [Compound R935401]
53 | > 10 µM | COC(=O)N1CCN(c2ccc(Nc3nc(NC4CC4)ncc3F)cc2)CC1 [Compound R945373]
54 | 0.436 µM | CC(=O)N(C)c1ccc(Nc2ncc(F)c(Nc3ccc4c(n3)NC(=O)CO4)n2)cc1 [Compound R945420]
55 | 16.5 µM | Cc1cc(Nc2ncc(F)c(Nc3ccc4c(n3)NC(=O)C(C)(C)O4)n2)cc(Cl)c1O [Compound R940394]

tested on: Human Jurkat T-cells (clone N); experiment: Jurkat T-cell activation (anti-TCR, CD69 upregulation); type: cell-based; details: not given
Procedure, shortened: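 Readout is CD69 upregulation by flow cytometry (anti-CD69-APC, 20 min at 4 °C) after 20 h anti-TCR (C305, 500 ng/ml) stimulation at 37 °C.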

Row | SMILES | IC50
56 | Nc1cccc(Nc2nc(Nc3cccc(NCCOCc4ccccc4)c3)ncc2F)c1 [Compound R950176] | > 10 µM
57 | COc1ccc(Nc2nc(Nc3cc(C)c(O)c(Cl)c3)ncc2F)cc1CN1CCOCC1 [Compound R940316] | 4.28 µM
58 | O=C1OCc2ccc(Nc3ncc(F)c(Nc4ccc5c(c4)OCCO5)n3)cc21 [Compound R926786] | 7.36 µM
59 | CNC(=O)COc1cccc(Nc2nc(Nc3ccc(OCCN(C)C)cc3)ncc2F)c1 [Compound R909253] | 3.08 µM

More lines, now with the values ahead:

Row | IC50 | SMILES
60 | > 10 µM | COC(=O)COc1cccc(Nc2ncc(F)c(Nc3ccc(OC(C)C)cc3)n2)c1 [Compound R945125]
61 | 17.1 µM | CCOC(=O)C(C)(C)Oc1cccc(Nc2ncc(F)c(Nc3ccc4c(c3)OCCO4)n2)c1 [Compound R926907]
62 | 1.23 µM | CC(C)(C)c1cccc(Nc2nc(Nc3cccc(OCC(=O)NC(CO)CO)c3)ncc2F)c1 [Compound R940296]

same assay, conditions: Homo sapiens

Row | SMILES | IC50
63 | O=[N+]([O-])c1cc(Nc2ncc(F)c(Nc3ccc(Cl)c([N+](=O)[O-])c3)n2)ccc1Cl [Compound R950149] | > 10 µM
64 | O=[N+]([O-])c1ccc(F)c(Nc2ncc(F)c(Nc3cc([N+](=O)[O-])ccc3F)n2)c1 [Compound R950147] | 14.8 µM

same assay, conditions: Homo sapiens, Jurkat

Row | SMILES | IC50
65 | Fc1cnc(Nc2ccc(N3CCN(Cc4ccccc4)CC3)cc2)nc1Nc1ccc(N2CCN(Cc3ccccc3)CC2)cc1 [Compound R945152] | > 10 µM
66 | CNC(=O)c1cccc(Nc2ncc(F)c(Nc3ccc4cc[nH]c4c3)n2)c1 [Compound R926933] | 2.79 µM

Continued, values first:

Row | IC50 | SMILES
67 | 0.56 µM | COc1ccc(Nc2ncc(F)c(Nc3ccc4c(c3)OCCO4)n2)cc1OC [Compound R926212]
68 | > 10 µM | Fc1cnc(Nc2ccc(SC(F)(F)F)cc2)nc1Nc1ccc2c(c1)OCCO2 [Compound R926899]
69 | > 10 µM | Fc1cccc(Nc2ncc(F)c(Nc3ccc4c(c3)OCCO4)n2)c1 [Compound R926221]
70 | > 10 µM | COc1ccc(Nc2ncc(F)c(Nc3ccc4c(c3)OCCO4)n2)c(OC)c1 [Compound R926789]
71 | > 10 µM | Fc1ccc(Nc2ncc(F)c(Nc3ccc4c(c3)OCCO4)n2)cc1 [Compound R926220]
